Experimental data from BindingDB's records for doi:10.1021/cc060110n (University of Mississippi, 2007).

Experiments:
[1] = target: L-lactate dehydrogenase B chain (Bos taurus, UniProt Q5E9B1); assay: Enzyme Assay
Source text: (§1) Enzyme assay using recombinant pfLDH and mLDH (bovine heart).

[2] = target: L-lactate dehydrogenase (Plasmodium falciparum, UniProt B9UDZ5); assay: Enzyme Assay
Source text: as §1

Chain of L-lactate dehydrogenase (B9UDZ5 whole entry): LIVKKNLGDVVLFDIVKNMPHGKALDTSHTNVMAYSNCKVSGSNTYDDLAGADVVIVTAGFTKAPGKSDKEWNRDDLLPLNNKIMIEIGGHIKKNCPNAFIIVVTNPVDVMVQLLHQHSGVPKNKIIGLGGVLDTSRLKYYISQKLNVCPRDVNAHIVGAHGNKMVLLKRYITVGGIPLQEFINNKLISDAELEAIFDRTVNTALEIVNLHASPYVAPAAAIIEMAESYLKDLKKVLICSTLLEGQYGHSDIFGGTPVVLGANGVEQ
Chain of L-lactate dehydrogenase B chain (Q5E9B1 whole entry): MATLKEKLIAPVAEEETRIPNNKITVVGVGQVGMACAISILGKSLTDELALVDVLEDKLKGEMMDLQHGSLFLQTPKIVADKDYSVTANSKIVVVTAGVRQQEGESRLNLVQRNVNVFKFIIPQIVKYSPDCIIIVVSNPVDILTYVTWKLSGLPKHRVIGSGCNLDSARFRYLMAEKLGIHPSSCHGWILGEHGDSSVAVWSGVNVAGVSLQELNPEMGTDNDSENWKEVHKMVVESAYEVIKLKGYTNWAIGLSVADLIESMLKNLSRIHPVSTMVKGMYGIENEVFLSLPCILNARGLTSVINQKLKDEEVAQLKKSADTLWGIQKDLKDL

Row | Compound | IC50 [1] [µM] | IC50 [2] [µM]
1 | COc1ccccc1NC(=O)C(=O)O [Oxamic Acid/Ester, 6] | > 200 | > 200
2 | C=CCN(C)C(=O)C(=O)O [Oxamic Acid/Ester, 11] | > 200 | > 200
3 | CCCCCCCCCCCCCCCCNC(=O)C(=O)O [Oxamic Acid/Ester, 14] | 150 | > 200
4 | Cc1ccc(CNC(=O)C(=O)O)o1 [Oxamic Acid/Ester, 15] | > 200 | > 200
5 | CN(Cc1ccco1)C(=O)C(=O)O [Oxamic Acid/Ester, 16] | 186 | > 200
6 | O=C(O)C(=O)NCc1cccc2ccccc12 [Oxamic Acid/Ester, 17] | > 200 | 43
7 | COCCNC(=O)C(=O)O [Oxamic Acid/Ester, 21] | 25 | 14
8 | O=C(O)C(=O)N(Cc1ccccc1)c1ccccc1 [Oxamic Acid/Ester, 22] | > 200 | > 200
9 | COCCCNC(=O)C(=O)O [Oxamic Acid/Ester, 25] | 31 | 43
10 | CCCCCCCCCNC(=O)C(=O)O [Oxamic Acid/Ester, 26] | > 200 | 88
11 | O=C(O)C(=O)N1CCN(c2ccccc2)CC1 [Oxamic Acid/Ester, 27] | 32 | > 200
12 | CCCCCN(C)C(=O)C(=O)O [Oxamic Acid/Ester, 28] | > 200 | > 200
13 | O=C(O)C(=O)N(Cc1ccccc1)Cc1ccccc1 [Oxamic Acid/Ester, 32] | > 200 | > 200
14 | CC1CCCCN1C(=O)C(=O)O (stereo not drawn) [Oxamic Acid/Ester, 33] | 43 | > 200
15 | O=C(O)C(=O)NCC1CCCO1 (stereo not drawn) [Oxamic Acid/Ester, 35] | > 200 | 188
16 | CC(NC(=O)C(=O)O)c1cccc2c1CCCC2 (stereo not drawn) [Oxamic Acid/Ester, 38] | > 200 | 146
17 | O=C(O)C(=O)NCc1ccco1 [Oxamic Acid/Ester, 39] | > 200 | > 200
18 | CC(C)CNC(=O)C(=O)O [Oxamic Acid/Ester, 40] | > 200 | > 200
19 | O=C(O)C(=O)NCCc1ccc(Br)cc1 [Oxamic Acid/Ester, 42] | > 200 | 51
20 | Cc1cc2c(C(C)C)c(O)c(O)c(C=O)c2c(O)c1-c1c(C)cc2c(C(C)C)c(O)c(O)c(C=O)c2c1O [Tash 1] | 6.9 | 3.97

More lines, now with the values ahead:

Row | IC50 [1] [µM] | IC50 [2] [µM] | Compound
21 | 107 | 97.9 | Cc1cccc(N(C(=O)C(=O)O)c2ccccc2)c1 [Oxamic Acid/Ester, 7]
22 | 158 | > 200 | CCc1ccccc1N(Cc1ccccc1)C(=O)C(=O)O [Oxamic Acid/Ester, 8]
23 | > 200 | 160 | CCCCCCCNC(=O)C(=O)O [Oxamic Acid/Ester, 10]
24 | > 200 | > 200 | CCCCNC(=O)C(=O)O [Oxamic Acid/Ester, 12]
25 | 20 | 59 | CC(C)c1ccc2c(c1)CCC1[C@](C)(CNC(=O)C(=O)O)CCC[C@]21C (stereo partly drawn) [Oxamic Acid/Ester, 18]
26 | 46 | 169 | O=C(O)C(=O)N1CCN(Cc2ccccc2)CC1 [Oxamic Acid/Ester, 19]
27 | 59 | 101 | O=C(O)C(=O)N1CCC(Cc2ccccc2)CC1 [Oxamic Acid/Ester, 20]
28 | 133 | 47 | CCCCCCNC(=O)C(=O)O [Oxamic Acid/Ester, 23]
29 | > 200 | > 200 | CN(C(=O)C(=O)O)c1ccccc1 [Oxamic Acid/Ester, 24]
30 | > 200 | > 200 | C=CCN(C(=O)C(=O)O)C1CCCCC1 [Oxamic Acid/Ester, 29]
31 | 168 | > 200 | CN(Cc1ccccc1)C(=O)C(=O)O [Oxamic Acid/Ester, 30]
32 | > 200 | > 200 | CCC(C)NC(=O)C(=O)O (stereo not drawn) [Oxamic Acid/Ester, 31]
33 | > 200 | 157 | CC(C)CCNC(=O)C(=O)O [Oxamic Acid/Ester, 34]
34 | 90 | 35 | O=C(O)C(=O)NCCC(c1ccccc1)c1ccccc1 [Oxamic Acid/Ester, 36]
35 | > 200 | > 200 | CSc1cccc(NC(=O)C(=O)O)c1 [Oxamic Acid/Ester, 37]
36 | 88 | 41 | O=C(O)C(=O)NCCCCc1ccccc1 [Oxamic Acid/Ester, 41]
37 | – | 94.4 | NC(=O)C(=O)O [carbamoylformic acid]
